Measured values: patent publication US10442796B2, “2,3,5-substituted thiophene compound as protein kinase inhibitor” (KOREA INSTITUTE OF SCIENCE AND TECHNOLOGY, priority 2016, dated 2019)

Legend:
Assay in all cases: Kinase inhibitory activity, full kinase panel
Format in all cases: biochemical
Settings in all cases: single concentration of 1 μM, read-out: %Inhibitory ability
SRC = SRC (Homo sapiens, UniProt P12931)
Protocol: (§1) In order to measure inhibitory activity (% inhibitory ability) against a protein kinase with respect to the compound of the present invention, a biochemical assay was performed in a full kinase panel shown in the following Table 1. As an experimental compound, the (S)-5-((3-fluorophenyl)ethynyl)-N-(piperidin-3-yl)-3-ureidothiophene-2-carboxamide synthesized in Example 24 was used.

MAP4K2 = MAP4K2 (Homo sapiens, UniProt Q12851)
Protocol: as §1

TGFBR2 = TGFBR2 (Homo sapiens, UniProt P37173)
Protocol: as §1

MAP4K3 = MAP4K3 (Homo sapiens, UniProt Q8IVH8)
Protocol: as §1

CAMK1 = CAMK1 (Homo sapiens, UniProt Q14012)
Protocol: as §1

DAPK1 = DAPK1 (Homo sapiens, UniProt P53355)
Protocol: as §1

ULK1 = ULK1 (Homo sapiens, UniProt O75385)
Protocol: as §1

MAP4K4 = MAP4K4 (Homo sapiens, UniProt O95819)
Protocol: as §1

LRRK2 = LRRK2 (Homo sapiens, UniProt Q5S007)
Protocol: as §1

AAK1 = AAK1 (Homo sapiens, UniProt Q2M2I8)
AAK1, sequence (Q2M2I8 whole entry, species assumed): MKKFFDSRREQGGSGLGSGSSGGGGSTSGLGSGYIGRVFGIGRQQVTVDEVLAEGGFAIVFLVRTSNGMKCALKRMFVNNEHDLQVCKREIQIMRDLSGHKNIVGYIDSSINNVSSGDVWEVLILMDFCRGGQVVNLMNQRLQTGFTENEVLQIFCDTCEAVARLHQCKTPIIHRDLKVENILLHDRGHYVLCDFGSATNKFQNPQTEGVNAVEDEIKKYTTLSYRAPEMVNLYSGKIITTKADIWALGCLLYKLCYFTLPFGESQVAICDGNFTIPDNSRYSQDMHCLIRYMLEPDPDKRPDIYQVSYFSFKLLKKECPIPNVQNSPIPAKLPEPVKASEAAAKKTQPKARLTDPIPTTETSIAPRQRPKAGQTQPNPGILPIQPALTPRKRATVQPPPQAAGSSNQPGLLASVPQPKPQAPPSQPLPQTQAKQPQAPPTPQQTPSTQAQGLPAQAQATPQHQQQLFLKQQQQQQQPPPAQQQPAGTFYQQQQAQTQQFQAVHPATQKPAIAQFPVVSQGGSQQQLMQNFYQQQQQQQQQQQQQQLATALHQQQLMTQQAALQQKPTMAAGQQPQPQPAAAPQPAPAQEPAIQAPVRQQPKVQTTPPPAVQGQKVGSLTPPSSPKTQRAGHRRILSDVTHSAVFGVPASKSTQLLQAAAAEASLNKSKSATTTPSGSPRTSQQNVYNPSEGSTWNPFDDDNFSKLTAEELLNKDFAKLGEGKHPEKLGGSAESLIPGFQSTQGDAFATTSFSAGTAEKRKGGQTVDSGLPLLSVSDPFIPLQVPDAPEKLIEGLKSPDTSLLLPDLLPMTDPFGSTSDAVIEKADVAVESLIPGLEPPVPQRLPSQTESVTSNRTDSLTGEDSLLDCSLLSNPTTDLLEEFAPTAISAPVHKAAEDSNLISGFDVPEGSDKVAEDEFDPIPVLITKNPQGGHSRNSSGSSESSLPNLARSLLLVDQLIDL
Protocol: as §1

FLT4 = FLT4 (Homo sapiens, UniProt P35916)
Protocol: as §1

DRAK2 = DRAK2 (Homo sapiens, UniProt O94768)
DRAK2, sequence (O94768 whole entry, species assumed): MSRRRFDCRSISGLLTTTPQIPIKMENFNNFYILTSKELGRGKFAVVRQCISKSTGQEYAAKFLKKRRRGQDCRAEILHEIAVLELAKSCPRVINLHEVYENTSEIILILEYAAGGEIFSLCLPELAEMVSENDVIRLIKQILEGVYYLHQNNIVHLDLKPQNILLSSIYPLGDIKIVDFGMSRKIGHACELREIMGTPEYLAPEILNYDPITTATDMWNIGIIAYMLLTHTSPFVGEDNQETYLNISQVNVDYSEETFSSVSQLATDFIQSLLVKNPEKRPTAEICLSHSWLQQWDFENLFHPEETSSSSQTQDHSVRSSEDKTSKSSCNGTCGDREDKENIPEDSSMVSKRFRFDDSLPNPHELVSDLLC
Protocol: as §1

MERTK = MERTK (Homo sapiens, UniProt Q12866)
Protocol: as §1

JAK2 = JAK2 (Homo sapiens, UniProt O60674)
Protocol: as §1

YANK2 = YANK2 (Homo sapiens, UniProt Q9NY57)
Protocol: as §1

AURKB = AURKB (Homo sapiens, UniProt Q96GD4)
Protocol: as §1

VEGFR2 = VEGFR2 (Homo sapiens, UniProt P35968)
VEGFR2, sequence (P35968 20-1356, species assumed): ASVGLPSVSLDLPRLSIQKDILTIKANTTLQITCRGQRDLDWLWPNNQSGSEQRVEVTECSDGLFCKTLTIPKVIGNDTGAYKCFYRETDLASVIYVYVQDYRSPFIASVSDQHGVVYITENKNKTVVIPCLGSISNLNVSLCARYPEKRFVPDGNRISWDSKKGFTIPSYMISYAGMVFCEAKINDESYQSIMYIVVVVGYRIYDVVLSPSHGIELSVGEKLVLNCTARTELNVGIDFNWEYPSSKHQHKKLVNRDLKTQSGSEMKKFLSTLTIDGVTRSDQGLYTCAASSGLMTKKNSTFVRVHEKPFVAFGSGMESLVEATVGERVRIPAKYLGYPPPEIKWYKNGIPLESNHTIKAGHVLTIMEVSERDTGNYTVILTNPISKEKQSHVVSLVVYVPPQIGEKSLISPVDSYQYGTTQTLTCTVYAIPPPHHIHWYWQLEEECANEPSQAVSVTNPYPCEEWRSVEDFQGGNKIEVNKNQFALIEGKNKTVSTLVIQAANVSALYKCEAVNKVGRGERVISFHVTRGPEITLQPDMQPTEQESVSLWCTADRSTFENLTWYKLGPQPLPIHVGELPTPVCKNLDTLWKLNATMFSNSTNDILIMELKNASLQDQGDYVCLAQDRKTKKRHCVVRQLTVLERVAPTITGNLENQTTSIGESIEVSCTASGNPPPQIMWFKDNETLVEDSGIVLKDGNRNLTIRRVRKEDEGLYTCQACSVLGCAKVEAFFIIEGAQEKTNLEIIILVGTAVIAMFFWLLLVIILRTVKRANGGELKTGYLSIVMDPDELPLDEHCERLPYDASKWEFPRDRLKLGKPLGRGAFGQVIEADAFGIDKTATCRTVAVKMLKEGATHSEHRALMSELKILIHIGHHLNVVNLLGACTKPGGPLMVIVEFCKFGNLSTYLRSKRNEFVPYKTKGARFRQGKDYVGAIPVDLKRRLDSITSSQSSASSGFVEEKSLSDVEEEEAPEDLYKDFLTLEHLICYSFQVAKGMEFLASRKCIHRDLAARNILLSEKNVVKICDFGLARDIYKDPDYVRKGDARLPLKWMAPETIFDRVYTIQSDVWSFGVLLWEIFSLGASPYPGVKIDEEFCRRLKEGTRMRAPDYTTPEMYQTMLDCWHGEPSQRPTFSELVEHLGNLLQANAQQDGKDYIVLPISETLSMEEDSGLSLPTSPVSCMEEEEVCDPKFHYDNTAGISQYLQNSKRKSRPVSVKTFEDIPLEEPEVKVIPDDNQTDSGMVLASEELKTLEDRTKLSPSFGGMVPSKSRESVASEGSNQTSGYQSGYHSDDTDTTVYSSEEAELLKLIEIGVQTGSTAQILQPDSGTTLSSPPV
Protocol: as §1

MLK1 = MLK1 (Homo sapiens, UniProt P80192)
MLK1, sequence (P80192 whole entry): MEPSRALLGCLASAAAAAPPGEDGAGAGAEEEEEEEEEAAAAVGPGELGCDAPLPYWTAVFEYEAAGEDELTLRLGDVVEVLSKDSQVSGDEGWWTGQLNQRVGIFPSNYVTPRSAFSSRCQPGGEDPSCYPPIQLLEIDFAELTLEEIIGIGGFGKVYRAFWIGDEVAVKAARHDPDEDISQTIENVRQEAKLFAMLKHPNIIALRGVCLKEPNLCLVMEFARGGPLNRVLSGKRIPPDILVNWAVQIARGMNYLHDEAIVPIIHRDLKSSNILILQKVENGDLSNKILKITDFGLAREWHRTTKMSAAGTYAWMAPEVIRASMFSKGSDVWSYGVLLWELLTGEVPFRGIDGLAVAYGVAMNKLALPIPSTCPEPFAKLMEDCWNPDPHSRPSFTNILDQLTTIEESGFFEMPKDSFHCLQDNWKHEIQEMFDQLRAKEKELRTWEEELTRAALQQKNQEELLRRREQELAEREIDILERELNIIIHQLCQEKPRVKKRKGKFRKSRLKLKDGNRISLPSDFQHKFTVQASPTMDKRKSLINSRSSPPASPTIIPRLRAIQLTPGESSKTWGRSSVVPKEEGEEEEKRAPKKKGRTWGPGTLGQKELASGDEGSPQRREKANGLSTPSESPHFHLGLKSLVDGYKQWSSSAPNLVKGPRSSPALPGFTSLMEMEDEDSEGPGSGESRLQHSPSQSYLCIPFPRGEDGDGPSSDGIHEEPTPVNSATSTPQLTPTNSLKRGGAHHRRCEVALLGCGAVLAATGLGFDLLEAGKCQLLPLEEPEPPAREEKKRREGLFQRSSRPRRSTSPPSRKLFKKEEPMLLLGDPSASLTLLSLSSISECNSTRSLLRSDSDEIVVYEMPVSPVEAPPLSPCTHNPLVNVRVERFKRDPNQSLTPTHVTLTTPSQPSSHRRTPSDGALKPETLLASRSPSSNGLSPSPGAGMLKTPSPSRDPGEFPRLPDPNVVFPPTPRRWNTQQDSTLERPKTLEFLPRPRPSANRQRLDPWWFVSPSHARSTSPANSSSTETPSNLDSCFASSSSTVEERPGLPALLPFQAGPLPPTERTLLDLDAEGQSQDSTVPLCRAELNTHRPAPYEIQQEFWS
Protocol: as §1

IRAK1 = IRAK1 (Homo sapiens, UniProt P51617)
Protocol: as §1

SIK = SIK (Homo sapiens, UniProt P57059)
Protocol: as §1

PRKX = PRKX (Homo sapiens, UniProt P51817)
Protocol: as §1

PIP5K2B = PIP5K2B (Homo sapiens, UniProt P78356)
Protocol: as §1

MST2 = MST2 (Homo sapiens, UniProt Q13188)
Protocol: as §1

PAK6 = PAK6 (Homo sapiens, UniProt Q9NQU5)
Protocol: as §1

KIT = KIT (Homo sapiens, UniProt P10721)
Protocol: as §1

CHEK2 = CHEK2 (Homo sapiens, UniProt O96017)
Protocol: as §1

PDGFRB = PDGFRB (Homo sapiens, UniProt P09619)
Protocol: as §1

SBK1 = SBK1 (Homo sapiens, UniProt Q52WX2)
Protocol: as §1

MAP3K3 = MAP3K3 (Homo sapiens, UniProt Q99759)
Protocol: as §1

CSK = CSK (Homo sapiens, UniProt P41240)
Protocol: as §1

PHKG2 = PHKG2 (Homo sapiens, UniProt P15735)
PHKG2, sequence (P15735 whole entry): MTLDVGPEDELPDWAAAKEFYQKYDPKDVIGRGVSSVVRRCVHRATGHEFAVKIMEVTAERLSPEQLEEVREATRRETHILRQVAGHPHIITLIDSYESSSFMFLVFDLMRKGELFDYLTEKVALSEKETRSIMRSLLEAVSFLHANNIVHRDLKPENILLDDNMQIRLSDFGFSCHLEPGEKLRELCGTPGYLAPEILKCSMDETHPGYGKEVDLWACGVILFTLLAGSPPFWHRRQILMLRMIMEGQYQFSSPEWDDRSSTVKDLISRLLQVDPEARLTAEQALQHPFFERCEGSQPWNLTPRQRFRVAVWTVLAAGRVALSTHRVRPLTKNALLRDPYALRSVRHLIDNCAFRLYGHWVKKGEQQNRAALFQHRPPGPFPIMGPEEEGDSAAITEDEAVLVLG
Protocol: as §1

TXK = TXK (Homo sapiens, UniProt P42681)
Protocol: as §1

MST4 = MST4 (Homo sapiens, UniProt Q9P289)
Protocol: as §1

DCAMKL1 = DCAMKL1 (Homo sapiens, UniProt O15075)
Protocol: as §1

FAK = FAK (Homo sapiens, UniProt Q05397)
Protocol: as §1

SIK2 = SIK2 (Homo sapiens, UniProt Q9H0K1)
Protocol: as §1

PLK4 = PLK4 (Homo sapiens, UniProt O00444)
Protocol: as §1

DLK = DLK (Homo sapiens, UniProt Q12852)
DLK, sequence (Q12852 whole entry): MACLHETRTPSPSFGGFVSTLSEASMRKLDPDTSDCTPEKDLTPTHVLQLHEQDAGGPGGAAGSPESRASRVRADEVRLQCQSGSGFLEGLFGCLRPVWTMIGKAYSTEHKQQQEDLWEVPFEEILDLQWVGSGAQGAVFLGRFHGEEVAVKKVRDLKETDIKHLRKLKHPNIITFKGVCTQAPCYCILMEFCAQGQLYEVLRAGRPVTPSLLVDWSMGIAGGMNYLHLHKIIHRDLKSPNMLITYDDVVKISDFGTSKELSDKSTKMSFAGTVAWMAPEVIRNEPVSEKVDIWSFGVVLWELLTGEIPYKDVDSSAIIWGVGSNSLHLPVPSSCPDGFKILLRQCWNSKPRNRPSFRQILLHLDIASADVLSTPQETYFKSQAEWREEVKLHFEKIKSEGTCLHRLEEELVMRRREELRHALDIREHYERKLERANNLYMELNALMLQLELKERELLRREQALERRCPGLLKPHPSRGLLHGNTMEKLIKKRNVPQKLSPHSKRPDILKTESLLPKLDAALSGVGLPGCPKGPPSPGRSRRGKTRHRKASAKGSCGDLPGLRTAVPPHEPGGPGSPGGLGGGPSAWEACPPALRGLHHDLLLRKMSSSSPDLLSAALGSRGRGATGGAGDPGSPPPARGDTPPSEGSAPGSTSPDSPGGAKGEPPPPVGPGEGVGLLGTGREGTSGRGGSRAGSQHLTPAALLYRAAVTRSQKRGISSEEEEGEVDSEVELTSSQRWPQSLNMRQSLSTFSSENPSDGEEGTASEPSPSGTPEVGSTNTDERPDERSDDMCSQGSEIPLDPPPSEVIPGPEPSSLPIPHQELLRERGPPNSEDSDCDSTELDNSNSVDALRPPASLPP
Protocol: as §1

MKNK2 = MKNK2 (Homo sapiens, UniProt Q9HBH9)
Protocol: as §1

MST1 = MST1 (Homo sapiens, UniProt Q13043)
Protocol: as §1

TSSK3 = TSSK3 (Homo sapiens, UniProt Q96PN8)
Protocol: as §1

TRKB = TRKB (Homo sapiens, UniProt Q16620)
Protocol: as §1

inhibition at 1 µM (SRC): 98.1%
inhibition at 1 µM (MAP4K2): 92.7%
inhibition at 1 µM (TGFBR2): 72%
inhibition at 1 µM (MAP4K3): 69%
inhibition at 1 µM (CAMK1): 67%
inhibition at 1 µM (DAPK1): 94.4%
inhibition at 1 µM (ULK1): 99.8%
inhibition at 1 µM (MAP4K4): 91.4%
inhibition at 1 µM (LRRK2): 72%
inhibition at 1 µM (AAK1): 80%
inhibition at 1 µM (FLT4): 94.5%
inhibition at 1 µM (DRAK2): 96%
inhibition at 1 µM (MERTK): 96.1%
inhibition at 1 µM (JAK2): 83%
inhibition at 1 µM (YANK2): 76%
inhibition at 1 µM (AURKB): 66%
inhibition at 1 µM (VEGFR2): 73%
inhibition at 1 µM (MLK1): 95.9%
inhibition at 1 µM (IRAK1): 90.7%
inhibition at 1 µM (SIK): 80%
inhibition at 1 µM (PRKX): 73%
inhibition at 1 µM (PIP5K2B): 74%
inhibition at 1 µM (MST2): 92.5%
inhibition at 1 µM (PAK6): 90.3%
inhibition at 1 µM (KIT): 99.8%
inhibition at 1 µM (CHEK2): 100%
inhibition at 1 µM (PDGFRB): 99.9%
inhibition at 1 µM (SBK1): 66%
inhibition at 1 µM (MAP3K3): 94.6%
inhibition at 1 µM (CSK): 92.1%
inhibition at 1 µM (PHKG2): 89%
inhibition at 1 µM (TXK): 83%
inhibition at 1 µM (MST4): 83%
inhibition at 1 µM (DCAMKL1): 80%
inhibition at 1 µM (FAK): 75%
inhibition at 1 µM (SIK2): 73%
inhibition at 1 µM (PLK4): 81%
inhibition at 1 µM (DLK): 68%
inhibition at 1 µM (MKNK2): 92.7%
inhibition at 1 µM (MST1): 96.6%
inhibition at 1 µM (TSSK3): 72%
inhibition at 1 µM (TRKB): 97.2%
SMILES: Cc1ccc(C#Cc2cc(NC(N)=O)c(C(=O)N[C@H]3CCCNC3)s2)cc1 [Example 24, (S)—N-(piperidin-3-yl)-5-(p-tolylethynyl)-3-ureidothiophene-2-carboxamide]
